Patent publication US20190337924A1, “SUBSTITUTED HYDANTOIN AND THIOHYDANTOIN DERIVATIVES AS ANDROGEN RECEPTOR ANTAGONISTS” (Janssen Pharmaceutica NV, priority 2016, published 2019)
Counter-ions that a name gives are not always drawn. Like-named read-outs stand apart in the source and are kept apart here.

Columns and labels:
[1] = target: T1, F876L mutant Androgen Receptor (AR-F876L) (Homo sapiens, UniProt P10275, F877L); experiment: AR reporter assay, LNCaP-AR-F876L ANT (antagonist mode); format: cell-based; details: for Emax: read-out: LNCaP-AR-F876L ANT MAX % Inh
T1 construct: expressed in transfected cells; host or cells: LNCaP
T1 sequence (P10275 1-920 F877L): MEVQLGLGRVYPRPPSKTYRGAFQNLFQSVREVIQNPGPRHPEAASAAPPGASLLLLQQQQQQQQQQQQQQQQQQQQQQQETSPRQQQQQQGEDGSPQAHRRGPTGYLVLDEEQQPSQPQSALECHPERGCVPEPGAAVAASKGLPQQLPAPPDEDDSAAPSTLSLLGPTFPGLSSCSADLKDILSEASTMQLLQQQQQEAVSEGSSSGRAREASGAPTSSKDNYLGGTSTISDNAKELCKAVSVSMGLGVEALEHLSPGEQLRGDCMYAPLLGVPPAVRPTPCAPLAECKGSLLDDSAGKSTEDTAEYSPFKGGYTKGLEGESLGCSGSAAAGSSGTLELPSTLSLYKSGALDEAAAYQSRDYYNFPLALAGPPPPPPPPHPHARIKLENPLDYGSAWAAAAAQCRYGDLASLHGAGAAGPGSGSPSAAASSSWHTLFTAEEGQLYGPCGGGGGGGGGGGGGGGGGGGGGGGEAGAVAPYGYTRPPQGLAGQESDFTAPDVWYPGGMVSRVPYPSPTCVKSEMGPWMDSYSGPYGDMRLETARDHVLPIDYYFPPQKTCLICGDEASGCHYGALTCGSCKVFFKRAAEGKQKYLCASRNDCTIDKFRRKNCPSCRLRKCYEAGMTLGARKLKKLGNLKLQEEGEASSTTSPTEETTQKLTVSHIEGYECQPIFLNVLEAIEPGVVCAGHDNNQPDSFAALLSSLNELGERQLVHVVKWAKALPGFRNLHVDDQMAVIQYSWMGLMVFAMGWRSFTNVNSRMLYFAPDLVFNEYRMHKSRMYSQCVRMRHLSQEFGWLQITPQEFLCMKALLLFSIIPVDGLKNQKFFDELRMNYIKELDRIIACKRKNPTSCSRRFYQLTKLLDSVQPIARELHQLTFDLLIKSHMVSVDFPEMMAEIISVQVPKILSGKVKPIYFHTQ
Text: (§1) LNCaP AR (cs) and LNCaP F876L luciferase cell lines were generated by transduction of each cell line (description of cell line generation Joseph J D, Lu N, Qian J, Sensintaffar J, Shao G, Brigham D, Moon M, Maneval E C, Chen I, Darimont B, Hager J H. A clinically relevant androgen receptor mutation confers resistance to second-generation antiandrogens enzalutamide and ARN-509. Cancer Discov 2013; 3:1020-1029) with an Androgen Response Element Firefly Luciferase lentiviral construct at an MOI (multiplicity of infection) of 50 following the manufacturer's instructions (Qiagen). A stable pooled-population cell line was generated using puromycin (Life Technologies) selection at 1:10,000 v/v. The protocol below was used for both cell lines and for testing of the compounds of Formula (I) of the present invention.
(§2) LNCaP cells were grown to about 80% confluence, media removed and cells rinsed in Hank's balanced salt solution prior to separation from the plate with 0.05% Trypsin EDTA. Cells were lifted and trypsin negated in complete CSS (charcoal stripped serum) culture media. CSS was maintained on cells for 24 h prior to assay, at which time 5,000 cells/[…] were seeded in Greiner 384 well White/White Tissue Culture Treated Plates and incubated for a further 1-2 hours at 37° C., 5% CO2, prior to addition of 10 μL of 4× Test Compounds (compounds described herein) or Assay Controls (all diluted in complete media containing 10% css). A further 10 μL of 4× R-1881 Agonist Challenge (antagonist assay) or Buffer (agonist assay) was then added (all diluted in complete media containing 10% css). Agonist challenge was at 400 pM for WT assay and 600 pM for F876L assay. Plates containing cells and compounds herein were incubated for a further 20-24 hours at 37° C., 5% CO2 before addition of 40 μL/well of Steady-Glo Luciferase Assay System Reagent (Promega#E2520). After 1 h, plates were read for luminescence on a BMG Pherastar.
Agonist challenge: R-1881 (Metribolone)—Agonist
Antagonist control (low control): 5-(5-(4-((1-Methylpiperidin-4-yl)oxy)phenyl)-8-oxo-6-thioxo-5,7-diazaspiro[3.4]octan-7-yl)-3-(trifluoromethyl)picolinonitrile (WO 2011/103202, EXAMPLE 19, Compound 129, CAS #1332390-06-3).
(1−(Sample RLU−Ave Low Control RLU[10 μM Antagonist Control])/(Ave High Control RLU [400 pM R-1881]−Ave Low Control RLU[10 μM Antagonist Control]))*100.
(§3) EC/IC50 calculations were achieved utilizing calculated RLU data and data fitting macros. Data were fit using least-squares methods to the following formula: […]
(§4) As used herein: • pIC50 is defined as −Log10(IC50 expressed in [Molar]). • pEC50 is defined as −Log10(EC50 expressed in [Molar]). • MAX % Inh is defined as the maximum % inhibition of R1881 control response observed for a compound over the tested concentration range. • MAX % Stim is defined as the maximum % stimulation (agonist response) observed for a compound over the tested concentration range. • LNCaP-AR-wt ANT refers to the reporter assay using LNCaP cells stably transfected with the Androgen Response Element Firefly Luciferase lentiviral construct and wild-type Androgen Receptor (AR-wt) in Antagonist mode. • LNCaP-AR-wt AG refers to the reporter assay using LNCaP cells stably transfected with the Androgen Response Element Firefly Luciferase lentiviral construct and wild-type Androgen Receptor (AR-wt) in Agonist mode. • LNCaP-AR-F876L ANT refers to the reporter assay using LNCaP cells stably transfected with the Androgen Response Element Firefly Luciferase lentiviral construct and F876L mutant Androgen Receptor (AR-F876L) in Antagonist mode. • LNCaP-AR-F876L AG refers to the reporter assay using LNCaP cells stably transfected with the Androgen Response Element Firefly Luciferase lentiviral construct and F876L mutant Androgen Receptor (AR-F876L) in Agonist mode.

[2] = target: T1, F876L mutant Androgen Receptor (AR-F876L); experiment: AR reporter assay, LNCaP-AR-F876L AG (agonist mode); format: cell-based; details: for Emax: read-out: LNCaP-AR-F876L AG MAX % Stim
Text: as §1, §2
((Sample RLU−Ave Low Control RLU[DMSO/Buffer])/(Ave High Control RLU [1 μM R-1881]—Ave Low Control RLU[DMSO/Buffer]))*100.
as §3, §4

[3] = antagonist mode, 600 pM R-1881 challenge, luciferase reporter, -Log10(IC50 in Molar), read-out: LNCaP-AR-F876L ANT pIC50 (converted)
[4] = agonist mode (buffer, no R-1881), -Log10(EC50 in Molar), read-out: LNCaP-AR-F876L AG pEC50 (converted)

| Structure (SMILES) | IC50 [1, 3] [nM] | Emax [1] [%] | EC50 [2] [nM] | Emax [2] [%] | EC50 [2, 4] [nM] | IC50 [1] [nM] |
| --- | --- | --- | --- | --- | --- | --- |
| N#Cc1ccc(N2C(=O)C3(CCC3)N(c3cnc(OC4CCNCC4)nc3)C2=S)cc1C(F)(F)F [Compound 15, 4-(8-Oxo-5-(2-(piperidin-4-yloxy)pyrimidin-5-yl)-6-thioxo-5,7-diazaspiro[3.4]octan-7-yl)-2-(trifluoromethyl)benzonitrile] | 107 | 101 | > 15100 | -0.1 | – | – |
| CN1CCC(Oc2ncc(N3C(=S)N(c4ccc(C#N)c(C(F)(F)F)c4)C(=O)C34CCC4)cn2)CC1 [Compound 16, 4-(5-(2-((1-Methylpiperidin-4-yl)oxy)pyrimidin-5-yl)-8-oxo-6-thioxo-5,7-diazaspiro[3.4]octan-7-yl)-2-(trifluoromethyl)benzonitrile] | 166 | 101 | > 15100 | 0.1 | – | – |
| Cc1cc(N2C(=O)C3(CCC3)N(c3ccc(OC4CCN(C)CC4)cc3)C2=S)ccc1C#N [Compound 17, 2-Methyl-4-(5-(4-((1-methylpiperidin-4-yl)oxy)phenyl)-8-oxo-6-thioxo-5,7-diazaspiro[3.4]octan-7-yl)benzonitrile] | 129 | 101 | – | 0.2 | > 15100 | – |
| Cc1cc(N2C(=O)C3(CCC3)N(c3ccc(OC4CCN(C)CC4)nc3)C2=S)ccc1C#N [Compound 18, 2-Methyl-4-(5-(6-((1-methylpiperidin-4-yl)oxy)pyridin-3-yl)-8-oxo-6-thioxo-5,7-diazaspiro[3.4]octan-7-yl)benzonitrile] | 282 | 99.8 | – | 2.6 | > 15100 | – |
| COc1cc(N2C(=O)C3(CCC3)N(c3ccc(OC4CCN(C)CC4)cc3)C2=S)ccc1C#N [Compound 19, 2-Methoxy-4-(5-(4-((1-methylpiperidin-4-yl)oxy)phenyl)-8-oxo-6-thioxo-5,7-diazaspiro[3.4]octan-7-yl)benzonitrile] | – | 101 | > 15100 | 0.3 | – | 83.2 |
| COc1cc(N2C(=O)C3(CCC3)N(c3ccc(OC4CCN(C)CC4)nc3)C2=S)ccc1C#N [Compound 20, 2-Methoxy-4-(5-(6-((1-methylpiperidin-4-yl)oxy)pyridin-3-yl)-8-oxo-6-thioxo-5,7-diazaspiro[3.4]octan-7-yl)benzonitrile] | 145 | 100 | > 15100 | 0.3 | – | – |
| N#Cc1ccc(N2C(=O)C3(CCC3)N(c3ccc(OC4CCNCC4)cc3)C2=S)cc1Cl [Compound 21, 2-Chloro-4-(8-oxo-5-(4-(piperidin-4-yloxy)phenyl)-6-thioxo-5,7-diazaspiro[3.4]octan-7-yl)benzonitrile] | 200 | 104 | > 15100 | 0.2 | – | – |
| CN1CCC(Oc2ccc(N3C(=S)N(c4ccc(C#N)c(Cl)c4)C(=O)C34CCC4)cc2)CC1 [Compound 22, 2-Chloro-4-(5-(4-((1-methylpiperidin-4-yl)oxy)phenyl)-8-oxo-6-thioxo-5,7-diazaspiro[3.4]octan-7-yl)benzonitrile] | – | 99.5 | > 15100 | 0 | – | 112 |
| N#Cc1ccc(N2C(=O)C3(CCC3)N(c3ccc(OC4CCNCC4)nc3)C2=S)cc1Cl [Compound 23, 2-Chloro-4-(8-oxo-5-(6-(piperidin-4-yloxy)pyridin-3-yl)-6-thioxo-5,7-diazaspiro[3.4]octan-7-yl)benzonitrile hydrochloride] | – | 103 | > 15100 | 0.3 | – | 50.1 |
| CN1CCC(Oc2ccc(N3C(=S)N(c4ccc(C#N)c(Cl)c4)C(=O)C34CCC4)cn2)CC1 [Compound 24, 2-Chloro-4-(5-(6-((1-methylpiperidin-4-yl)oxy)pyridin-3-yl)-8-oxo-6-thioxo-5,7-diazaspiro[3.4]octan-7-yl)benzonitrile hydrochloride] | – | 99.8 | > 15100 | 0.1 | – | 77.6 |
